Assay results taken from paper PMC12309613 (Translational Oncology, 2025).

Molecular target: T1, PYCR1 (recombinant human His-PYCR1) (Homo sapiens, UniProt P32322)
T1 sequence (P32322 2-319): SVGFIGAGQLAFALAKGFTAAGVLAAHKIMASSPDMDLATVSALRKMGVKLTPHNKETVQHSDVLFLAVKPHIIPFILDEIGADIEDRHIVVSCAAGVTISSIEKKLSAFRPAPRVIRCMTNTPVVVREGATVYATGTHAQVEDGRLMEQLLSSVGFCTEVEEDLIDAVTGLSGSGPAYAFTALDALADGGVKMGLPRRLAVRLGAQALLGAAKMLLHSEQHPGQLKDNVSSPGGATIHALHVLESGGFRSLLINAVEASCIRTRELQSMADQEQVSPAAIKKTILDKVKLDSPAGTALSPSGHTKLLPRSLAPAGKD
Assay: surface plasmon resonance
Format: binding

Kd: 7.89 µM
SMILES: Nc1ncnc2c([C@@H]3O[C@H](CO)[C@@H](O)[C@H]3O)c[nH]c12 [9-DAA]
